Source: patent publication US8853274B1, “Compositions and methods for targeting glioblastomas cells” (Vanderbilt University, priority 2011, dated 2014)

Assays:
[1] = tested on: T4302 CD133+ cells expressing RhoB shRNA; test: Growth, caspase and Akt phosphorylation in RhoB shRNA cells; assay type: cell-based, human; settings: 100 nM
Protocol: (A) T4302 CD133+ cells were infected with lentivirus directing expression of a non-targeting shRNA or two RhoB specific shRNA. Cells were lysed for immunoblotting 3 days after infection. (B, C) Two days after infection, cells were selected with puromycin for two days, and plated in 96-well plates for growth curve assays. Cell growth was measured on days 1, 3 and 5 after plating, and normalized to the corresponding readout on day 1. (D-F) After lentiviral infection and puromycin selection as described above, T4302 CD133+ cells were treated with 100 nM GSI, FTI, ±3 Gy radiation and plated for subsequent experiments. (D) Relative growth on day 5, (E) caspase activation on day 3, and (F) protein levels on day 1 after treatment were determined as described in FIG. 4. *: p<0.001 by Student's t-test in comparison to the corresponding control groups.

[2] = tested on: T4302 CD133− cells; test: Growth / survival of non-stem GBM cells; assay type: cell-based, human; settings: day 5
Protocol: (A, B) T4302 CD133+ cells were treated with 100 nM RO4929097 (GSI) and/or 100 nM tipifarnib (FTI) for 4 hours prior to 3 Gy radiation. (A) Cell growth on day 5 and (B) caspase 3/7 activation on day 3 were determined as described in FIG. 4. #: p<0.001 by one-way ANOVA, combo vs. single agents. (C) The effects of GSIs and FTI against growth of T4302 CD133− cells were determined as described in panel A. (D, E) T4302 CD133+ cells were treated with GSI, FTI, or a 1:1 mixture at different concentrations (ranging from 3000 nM to ˜0.5 nM, 1:3 dilution)±3 Gy radiation. Cell viability was determined at 5 days after treatment in comparison to vehicle-treated groups. […] (F) T4302 CD 133+ cells were treated by GSI±FTI with a 2-fold dilution. Neurospheres were countered on day 10, and normalized to the vehicle-treated group.
Tumor cells are enzymatically dissociated from freshly collected subcutaneous xenograft tumors and cultured overnight before sorting. The CD133− and CD133+ fractions are separated either by magnetic sorting using the CD133 Microbead kit (Miltenyi Biotech), or labeled with APC-conjugated CD133 antibody (Miltenyi Biotech) and sorted by flow cytometry. CD133+ cells are maintained in neurobasal media supplemented with 2% B-27, 20 ng/ml EGF, and 20 ng/ml bFGF. […]

[3] = tested on: intracranial T4302 tumors; test: Orthotopic GBM model, survival and tumor burden; assay type: in vivo, Athymic nude mice
Protocol: (A, B) T4302 CD133+ cells were treated with 100 nM GSI±FTI for 48 hours and lysed in RIPA buffer. Mice bearing intracranial T4302 tumors were orally treated with 30 mg/kg/day GSI once a day (q.d.)±100 mg/kg/day FTI twice a day (b.i.d.) for 7 days. Brains were resected and homogenized in RIPA buffer. All lysates were blotted with an antibody specific to prelamin A. (B) Additional brains were fixed and resected for IHC staining for cleaved Notch1. (C) T4302 CD133+ cells were infected with lentivirus expressing firefly luciferase and selected with puromycin for two days. Athymic nude mice were intracranially implanted with 5,000 cells, maintained for 10 days, and treated with GSI±FTI for 20 days as described above. In a separated experiment, animals were treated by the same protocol, except they were given 2 doses of 4 Gy X-ray irradiation on day 11 and day 12, 4 hours after drug administration. These mice were on drugs for 30 days. The median survival was calculated by the GraphPad Prism 5 software. (D) Animals in the unirradiated experiment were tracked for their tumor progression by bioluminescence imaging. The Y axis is set in a log scale. (E,F) The survival curves of these two experiments are shown.
Mice were first anesthetized using an isoflurane inhalation system and maintained on the nose cone during the procedure. 5,000 CD 133+ GSC cells suspended in 10 μl PBS were implanted into the right cerebrum with 30 gauge needles. Animals were maintained for 10 days to allow tumor establishment. Before treatment, any mouse showing distress or neurological signs (e.g. lethargy, hemiparesis, ataxia, seizures) would be euthanized. The remaining mice will be randomized to treatment groups just prior to treatment. […]
Mice were weighted and visually inspected daily once treatments begin. Tumor development was monitored by bioluminescence imaging every week. […] The primary readout of the in vivo tests is the median survival calculated by the Kaplan-Meier estimator using the GraphPad Prism5 software. Drug efficacy was also be assessed by tumor sizes estimated by bioluminescence imaging.

[4] = tested on: Akt; test: Immunoblot of Akt phosphorylation in T4302 CD133+ cells; assay type: cell-based, human; settings: 200 nM, ±radiation, 2 days
Protocol: (A) T4302 CD133+ cells were treated with 200 nM RO4929097 (GSI), and irradiated 4 hours later. Cells were cultured for two days and lysed for immunoblotting. (B) T4302 CD133+ cells were treated with 200 nM GSI or FTI±radiation. Cells were lysed 2 days after treatment. (C) T4302 CD133+ cells were treated with 200 nM GSI±FTI for 24 hours, and left under normoxia or in 2% O2 for 16 hours before being lysed for immunoblotting.

## CC(C)(C(=O)NCC(F)(F)C(F)(F)F)C(=O)N[C@@H]1C(=O)Nc2ccccc2-c2ccccc21 [RO4929097]
[1]; day 1
  Akt phosphorylation in RhoB knockdown cells compared with control cells: greater reduction of Akt phosphorylation
[1]; ±3 Gy
  sensitivity of RhoB shRNA cells (growth day 5, caspase day 3): highly sensitive
[2]
  effect on growth of CD133− non-stem GBM cells: largely insensitive
[3]; unirradiated, 20 days oral treatment
  survival benefit, in words: did not produce significant benefits
[3]; with 2 doses of 4 Gy local X-ray, 30 days oral treatment
  survival benefit, in words: some modest effects
[3]; with radiation, ~day 80
  mice free of tumor burden / sustained control of orthotopic GBM: 1 out of 8
[4]
  Akt activity (phosphorylation at serine 473 and threonine 308): stronger Akt inhibition in irradiated cells than in unirradiated cells
